Experimental data published in patent US20100286215A1, “BIS-AROMATIC COMPOUNDS USEFUL IN THE TREATMENT OF INFLAMMATION” (BIS-AROMATIC COMPOUNDS USEFUL IN THE TREATMENT OF …, priority 2007, published 2010).

Biological target: T1, Recombinant human LTC4 synthase (Homo sapiens, UniProt Q16873)
T1 construct: made in house; host or cells: Pichia pastoris ('Piccia pastoralis' [sic])
T1 sequence (Q16873 1-150): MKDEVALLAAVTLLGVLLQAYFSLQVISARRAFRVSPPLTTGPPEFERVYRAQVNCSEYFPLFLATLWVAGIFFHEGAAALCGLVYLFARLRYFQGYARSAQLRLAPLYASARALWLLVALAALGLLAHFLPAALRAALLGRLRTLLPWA
Assay: LTC4 synthase assay (conversion of LTA4 methyl ester to LTC4 methyl ester, HPLC)
Assay type: biochemical
Conditions: inhibitor concentration 10 μM; read-out: Percantage Inhibition at 10 μM (unless specified otherwise)
Description: In the assay LTC4 synthase catalyses the reaction where the substrate LTA4 methyl ester is converted to LTC4 methyl ester. Recombinant human LTC4 synthase is expressed in Piccia pastoralis and the purified enzyme is dissolved in 25 mM Tris-buffer pH 7.8 and stored at −20° C. The assay is performed in phosphate buffered saline (PBS) pH 7.4, supplemented with 5 mM glutathione (GSH). The reaction is terminated by addition of acetonitrile/MeOH/acetic acid (50/50/1). The assay is performed at rt in 96-well plates. Analysis of the formed LTC4 methyl ester is performed with reversed phase HPLC (Waters 2795 utilizing an Onyx Monolithic C18 column). The mobile phase consists of acetonitrile/MeOH/H2O (32.5/30/37.5) with 1% acetic acid pH adjusted with NH3 to pH 5.6, and absorbance measured at 280 nm with a Waters 2487 UV-detector.
The following is added chronologically to each well: • 1. 50 μl assay buffer, PBS with 5 mM GSH. • 2. 0.5 μl inhibitor in DMSO. • 3. 2 μl LTC4 synthase in PBS. The total protein concentration in this solution is 0.025 mg/ml. Incubation of the plate at room temperature for 10 minutes. • 4. 0.5 μl LTA4 methyl ester. Incubation of the plate at rt for 1 min. • 5. 50 μl stop solution. 80 μl of the incubation mixture is analysed with HPLC.

| SMILES | inhibition at 10 µM [%] |
| --- | --- |
| CCCCOc1ccc(S(=O)(=O)Nc2ccc(C(=O)c3ccc(Nc4ccc(F)c(F)c4)c(C(=O)O)c3)cc2)cc1 [Example 14, 5-(4-(4-butoxyphenylsulfonamido)benzoyl)-2-(3,4-difluorophenylamino)benzoic acid] | 100 |
| CN(c1ccc(Cl)cc1)c1ccc(C(=O)c2ccc(NC3CCC(C(C)(C)C)CC3)c(C(=O)O)c2)cc1 (stereo not shown) [Example 14:3, 2-(4-tert-Butyl-cyclohexylamino)-5-{4-[(4-chloro-phenyl)-methyl-amino]-benzoyl}-benzoic acid] | 86 |
| CC(C)Oc1ccc(C(=O)Nc2ccc(C(=O)c3ccc(Nc4ccc(F)c(F)c4)c(C(=O)O)c3)cc2)cc1 [Example 15, 2-(3,4-difluorophenylamino)-5-(4-(4-isopropoxybenzamido)benzoyl)benzoic acid] | 68 |
| O=C(c1ccc(Nc2ccc(Cl)cc2)cc1)c1ccc(Nc2ccc(F)c(F)c2)c(C(=O)O)c1 [Example 16, 5-(4-(4-chlorophenylamino)-benzoyl)-2-(3,4-difluoro-phenylamino)benzoic acid] | 94 |
| CCCCOc1ccc(S(=O)(=O)Nc2ccc(C(=O)c3ccc(N(C)c4ccc(F)c(F)c4)c(C(=O)O)c3)cc2)cc1 [Example 17, 5-(4-(4-butoxyphenylsulfonamido)benzoyl)-2-((3,4-di-fluorophenyl)(methyl)amino)benzoic acid] | 99 |
| CN(c1ccc(F)c(F)c1)c1ccc(C(=O)c2ccc(NC(=O)c3cc(Cl)ccc3O)cc2)cc1C(=O)O [Example 18, 5-(4-(5-chloro-2-hydroxy-benzamido)benzoyl)-2-((3,4-difluorophenyl)(methyl)-amino)benzoic acid] | 100 |
| CN(c1ccc(F)c(F)c1)c1ccc(C(=O)c2ccc(Nc3ccc(Cl)cc3)cc2)cc1C(=O)O [Example 19, 5-(4-(4-chlorophenylamino)-benzoyl)-2-((3,4-difluoro-phenyl)(methyl)amino)-benzoic acid] | 75 |
